# Laboratory results published in ChEMBL document CHEMBL1157646, “Melanogenesis inhibitors from the desert plant Anastatica hierochuntica in B16 melanoma cells” (Bioorg Med Chem, 2010).
# Calls of active or inactive are those of the source. The calls are words filed in the database; no cut-off is given here.
# Test system: not listed separately
# Experiment: Toxicity in mouse B16-4A5 cells assessed as inhibition of cell proliferation at 10 uM in presence of 1 mM theophylline after 72 hrs by WST8 dye reduction assay
# Type: cell-based
# Settings: not given
row,SMILES,"inhibition at 72 h, 10 µM"
1,COc1cc([C@H]2Oc3c(OC)cc(/C=C/C=O)cc3[C@@H]2CO)ccc1O,13.6%
2,COc1cc([C@H]2Oc3c(OC)cc(/C=C/CO)cc3[C@@H]2CO)ccc1O,-1.6%
3,COc1cc(C(O)C(CO)Oc2ccc(/C=C/C=O)cc2OC)ccc1O (stereo unspecified),68.6%
4,O=Cc1ccc(O)cc1 [4-HYDROXYBENZALDEHYDE],-21%

# Test system: not listed separately
# Experiment: cells
# Settings: Mus musculus, B16-4A5, 72 h, read-out: INH
# Description: Inhibition of theophylline-stimulated melanogenesis in mouse B16-4A5 cells at 3 uM after 72 hrs
row,SMILES,inhibition at 3 µM
1,COc1cc([C@H]2Oc3c(OC)cc(/C=C/C=O)cc3[C@@H]2CO)ccc1O,2.1%
2,COc1cc([C@H]2Oc3c(OC)cc(/C=C/CO)cc3[C@@H]2CO)ccc1O,-5.4%

# Test system: not listed separately
# Experiment: cells
# Settings: Mus musculus, B16-4A5, 72 h, read-out: INH
# Remark: another data set of the same source
# Description: Inhibition of theophylline-stimulated melanogenesis in mouse B16-4A5 cells at 30 uM after 72 hrs
row,SMILES,inhibition at 30 µM
1,COc1cc([C@H]2Oc3c(OC)cc(/C=C/C=O)cc3[C@@H]2CO)ccc1O,79.1%
2,COc1cc([C@H]2Oc3c(OC)cc(/C=C/CO)cc3[C@@H]2CO)ccc1O,72.7%
3,O=Cc1ccc(O)cc1 [4-HYDROXYBENZALDEHYDE],< 15.4%

# Test system: not listed separately
# Experiment: Toxicity in mouse B16-4A5 cells assessed as inhibition of cell proliferation in presence of 1 mM theophylline after 72 hrs by WST8 dye reduction assay
# Type: cell-based
# Settings: not given
row,SMILES,IC50 at 72 h
1,COc1cc([C@H]2Oc3c(OC)cc(/C=C/C=O)cc3[C@@H]2CO)ccc1O,> 100 µM
2,COc1cc([C@H]2Oc3c(OC)cc(/C=C/CO)cc3[C@@H]2CO)ccc1O,> 100 µM
3,COc1cc(C(O)C(CO)Oc2ccc(/C=C/C=O)cc2OC)ccc1O (stereo unspecified),6.9 µM

# Test system: not listed separately
# Experiment: Toxicity in mouse B16-4A5 cells assessed as inhibition of cell proliferation at 1 uM in presence of 1 mM theophylline after 72 hrs by WST8 dye reduction assay
# Type: cell-based
# Settings: not given
row,SMILES,"inhibition at 72 h, 1 µM"
1,COc1cc([C@H]2Oc3c(OC)cc(/C=C/C=O)cc3[C@@H]2CO)ccc1O,3.8%
2,COc1cc([C@H]2Oc3c(OC)cc(/C=C/CO)cc3[C@@H]2CO)ccc1O,-2.7%
3,COc1cc(C(O)C(CO)Oc2ccc(/C=C/C=O)cc2OC)ccc1O (stereo unspecified),2.2%
4,O=Cc1ccc(O)cc1 [4-HYDROXYBENZALDEHYDE],-8.4%

# Test system: not listed separately
# Experiment: cells
# Settings: Mus musculus, B16-4A5, 72 h, read-out: INH
# Remark: another data set of the same source
# Description: Inhibition of theophylline-stimulated melanogenesis in mouse B16-4A5 cells at 10 uM after 72 hrs
row,SMILES,inhibition at 10 µM
1,COc1cc([C@H]2Oc3c(OC)cc(/C=C/C=O)cc3[C@@H]2CO)ccc1O,28.4%
2,COc1cc([C@H]2Oc3c(OC)cc(/C=C/CO)cc3[C@@H]2CO)ccc1O,18.6%
3,COc1cc(C(O)C(CO)Oc2ccc(/C=C/C=O)cc2OC)ccc1O (stereo unspecified),< 15.4%

# Test system: not listed separately
# Experiment: Toxicity in mouse B16-4A5 cells assessed as inhibition of cell proliferation at 3 uM in presence of 1 mM theophylline after 72 hrs by WST8 dye reduction assay
# Type: cell-based
# Settings: not given
row,SMILES,"inhibition at 72 h, 3 µM"
1,COc1cc([C@H]2Oc3c(OC)cc(/C=C/C=O)cc3[C@@H]2CO)ccc1O,5.5%
2,COc1cc([C@H]2Oc3c(OC)cc(/C=C/CO)cc3[C@@H]2CO)ccc1O,0.3%
3,COc1cc(C(O)C(CO)Oc2ccc(/C=C/C=O)cc2OC)ccc1O (stereo unspecified),13.6%
4,O=Cc1ccc(O)cc1 [4-HYDROXYBENZALDEHYDE],-13.6%

# Test system: not listed separately
# Experiment: Toxicity in mouse B16-4A5 cells assessed as inhibition of cell proliferation at 30 uM in presence of 1 mM theophylline after 72 hrs by WST8 dye reduction assay
# Type: cell-based
# Settings: not given
row,SMILES,"inhibition at 72 h, 30 µM"
1,COc1cc([C@H]2Oc3c(OC)cc(/C=C/C=O)cc3[C@@H]2CO)ccc1O,40.3%
2,COc1cc([C@H]2Oc3c(OC)cc(/C=C/CO)cc3[C@@H]2CO)ccc1O,23.3%
3,COc1cc(C(O)C(CO)Oc2ccc(/C=C/C=O)cc2OC)ccc1O (stereo unspecified),91.5%
4,O=Cc1ccc(O)cc1 [4-HYDROXYBENZALDEHYDE],17.6%

# Test system: not listed separately
# Experiment: cells
# Settings: Mus musculus, B16-4A5, 72 h, read-out: INH
# Remark: another data set of the same source
# Description: Inhibition of theophylline-stimulated melanogenesis in mouse B16-4A5 cells at 1 uM after 72 hrs
row,SMILES,inhibition at 1 µM
1,COc1cc([C@H]2Oc3c(OC)cc(/C=C/C=O)cc3[C@@H]2CO)ccc1O,-2.8%
2,COc1cc([C@H]2Oc3c(OC)cc(/C=C/CO)cc3[C@@H]2CO)ccc1O,-1.6%

# Target: T1, Tyrosinase (Agaricus bisporus) (UniProt O42713)
# T1 sequence (whole entry): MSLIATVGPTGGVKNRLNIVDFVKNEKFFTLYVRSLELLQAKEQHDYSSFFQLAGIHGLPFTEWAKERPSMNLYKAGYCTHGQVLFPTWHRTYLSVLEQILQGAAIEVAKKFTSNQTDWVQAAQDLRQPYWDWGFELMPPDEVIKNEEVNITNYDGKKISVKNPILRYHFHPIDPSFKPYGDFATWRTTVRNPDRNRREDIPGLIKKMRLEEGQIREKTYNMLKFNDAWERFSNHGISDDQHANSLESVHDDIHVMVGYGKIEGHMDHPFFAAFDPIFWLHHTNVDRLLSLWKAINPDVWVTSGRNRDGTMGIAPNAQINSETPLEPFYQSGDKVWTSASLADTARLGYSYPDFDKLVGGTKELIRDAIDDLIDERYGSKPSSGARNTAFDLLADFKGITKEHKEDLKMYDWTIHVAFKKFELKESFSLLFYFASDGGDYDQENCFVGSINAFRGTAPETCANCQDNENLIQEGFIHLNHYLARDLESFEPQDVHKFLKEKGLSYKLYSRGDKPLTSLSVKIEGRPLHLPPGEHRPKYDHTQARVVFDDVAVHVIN
# Experiment: Inhibition of mushroom tyrosinase assessed as inhibition of melanin production from dopachrome by autoxidation at 100 uM
# Settings: not given
row,SMILES,inhibition
1,COc1cc([C@H]2Oc3c(OC)cc(/C=C/C=O)cc3[C@@H]2CO)ccc1O,inactive
2,COc1cc([C@H]2Oc3c(OC)cc(/C=C/CO)cc3[C@@H]2CO)ccc1O,inactive
